Laboratory results: ChEMBL document CHEMBL3421548, “PMA-SiO2 catalyzed synthesis of indolo[2,3-c]quinolines as potent anti cancer agents” (Bioorg Med Chem Lett, 2015)
The source made the active and inactive calls. The calls are words filed in the database; no cut-off is given here.

Experiments:
DU-145 [1] = experiment: Cytotoxicity against human DU145 cells after 48 hrs by SRB method; type: functional, cell-based; settings: DU-145, 48 h
MCF7 = experiment: Cytotoxicity against human MCF7 cells after 48 hrs by SRB method; type: functional, cell-based; settings: MCF7, 48 h
HeLa = experiment: Cytotoxicity against human HeLa cells after 48 hrs by SRB method; type: functional, cell-based
A549 = experiment: Cytotoxicity against human A549 cells after 48 hrs by SRB method; type: functional, cell-based; settings: A549, 48 h
Mycobacterium sp. = experiment: Antimycobacterial activity against Mycobacterium sp.; type: functional, organism-based
[2] = Cytotoxicity against mouse NIH/3T3 cells after 48 hrs by SRB method; type: cell-based; settings: NIH3T3, 48 h
DU-145 [3] = experiment: Reduction in NF-kappaB p65 phosphorylation in human DU145 cells at 5 to 25 uM after 24 hrs by Western blotting analysis; type: functional, cell-based
DU-145 [4] = experiment: Cell cycle arrest in human DU145 cells assessed as accumulation at G2/M phase at 15 uM after 24 hrs by RNase/propidium iodide staining-based flow cytometry (reference value: 13.7%); type: functional
DU-145 [5] = experiment: Cell cycle arrest in human DU145 cells assessed as accumulation at G2/M phase at 50 uM after 24 hrs by RNase/propidium iodide staining-based flow cytometry (reference value: 13.7%); type: functional
DU-145 [6] = experiment: Cell cycle arrest in human DU145 cells assessed as accumulation at G2/M phase at 25 uM after 24 hrs by RNase/propidium iodide staining-based flow cytometry (reference value: 13.7%); type: functional
DU-145 [7] = experiment: Cell cycle arrest in human DU145 cells assessed as accumulation at G1 phase at 5 uM after 24 hrs by RNase/propidium iodide staining-based flow cytometry (reference value: 82.57%); type: functional
DU-145 [8] = experiment: Cell cycle arrest in human DU145 cells assessed as accumulation at G2/M phase at 5 uM after 24 hrs by RNase/propidium iodide staining-based flow cytometry (reference value: 13.7%); type: functional
DU-145 [9] = experiment: Cell cycle arrest in human DU145 cells assessed as accumulation at S phase at 25 uM after 24 hrs by RNase/propidium iodide staining-based flow cytometry (reference value: 4.24%); type: functional
DU-145 [10] = experiment: Cell cycle arrest in human DU145 cells assessed as accumulation at G1 phase at 10 uM after 24 hrs by RNase/propidium iodide staining-based flow cytometry (reference value: 82.57%); type: functional
DU-145 [11] = experiment: Cell cycle arrest in human DU145 cells assessed as accumulation at G1 phase after 24 hrs by RNase/propidium iodide staining-based flow cytometry; type: functional
DU-145 [12] = experiment: Cell cycle arrest in human DU145 cells assessed as accumulation at S phase at 50 uM after 24 hrs by RNase/propidium iodide staining-based flow cytometry (reference value: 4.24%); type: functional
DU-145 [13] = experiment: Cell cycle arrest in human DU145 cells assessed as accumulation at G1 phase at 50 uM after 24 hrs by RNase/propidium iodide staining-based flow cytometry (reference value: 82.57%); type: functional
DU-145 [14] = experiment: Cell cycle arrest in human DU145 cells assessed as accumulation at G1 phase at 15 uM after 24 hrs by RNase/propidium iodide staining-based flow cytometry (reference value: 82.57%); type: functional
DU-145 [15] = experiment: Effect on NF-kappaB total expression in human DU145 cells at 5 to 25 uM after 24 hrs by Western blotting analysis; type: functional, cell-based
DU-145 [16] = experiment: Cell cycle arrest in human DU145 cells assessed as accumulation at S phase at 15 uM after 24 hrs by RNase/propidium iodide staining-based flow cytometry (reference value: 4.24%); type: functional
DU-145 [17] = experiment: Cell cycle arrest in human DU145 cells assessed as accumulation at S phase at 5 uM after 24 hrs by RNase/propidium iodide staining-based flow cytometry (reference value: 4.24%); type: functional
DU-145 [18] = experiment: Cell cycle arrest in human DU145 cells assessed as accumulation at G1 phase at 25 uM after 24 hrs by RNase/propidium iodide staining-based flow cytometry (reference value: 82.57%); type: functional
DU-145 [19] = experiment: Cell cycle arrest in human DU145 cells assessed as accumulation at G2/M phase at 10 uM after 24 hrs by RNase/propidium iodide staining-based flow cytometry (reference value: 13.7%); type: functional
DU-145 [20] = experiment: Cell cycle arrest in human DU145 cells assessed as accumulation at S phase at 10 uM after 24 hrs by RNase/propidium iodide staining-based flow cytometry (reference value: 4.24%); type: functional
DU-145 [21] = experiment: Cell cycle arrest in human DU145 cells assessed as accumulation at G2/M phase after 24 hrs by RNase/propidium iodide staining-based flow cytometry; type: functional

Compound | IC50 (DU-145 [1]) [µM] | IC50 (MCF7) [µM] | IC50 (HeLa) [µM] | IC50 (A549) [µM] | Activity (Mycobacterium sp.) | IC50 [2] [µM] | further results
c1ccc2nc(-c3nc4ccccc4c4c3[nH]c3ccccc34)ccc2c1 | 41.5 | 52.6 | 69.9 | 68.4 | inactive | > 200 | –
FC(F)(F)c1ccc(-c2nc3ccccc3c3c2[nH]c2ccccc23)cc1 | 4.19 | 5.07 | 20.8 | 3.71 | inactive | 110 | –
C=CCOc1ccc(-c2nc3ccccc3c3c2[nH]c2ccccc23)cc1 | 23.6 | 11.9 | 27.5 | 6.22 | inactive | > 200 | –
Cc1cn([C@H]2C[C@H](N=[N+]=[N-])[C@@H](CO)O2)c(=O)[nH]c1=O [ZIDOVUDINE] | 34.5 | 35 | 65.5 | 16.2 | inactive | > 200 | –
c1ccc(COc2ccc(-c3nc4ccccc4c4c3[nH]c3ccccc34)cc2)cc1 | 70 | 58.9 | 67.9 | 29.9 | inactive | > 200 | –
CCc1ccc(-c2nc3ccccc3c3c2[nH]c2ccccc23)cc1 | 46.2 | 9.84 | 19 | 9.33 | inactive | 200 | –
c1csc(-c2ccc(-c3nc4ccccc4c4c3[nH]c3ccccc34)s2)c1 | 0.52 | 10.7 | 6.59 | 3.03 | inactive | 89.5 | Activity (DU-145 [3]): Active; Activity (DU-145 [4]): 9.6%; Activity (DU-145 [5]): 1.89%; Activity (DU-145 [6]): 7.89%; Activity (DU-145 [7]): 84.55%; Activity (DU-145 [8]): 12.38%; Activity (DU-145 [9]): 2.83%; Activity (DU-145 [10]): 86.17%; Activity (DU-145 [11]): Dose-dependent effect; Activity (DU-145 [12]): 0.63%; Activity (DU-145 [13]): 97.58%; Activity (DU-145 [14]): 87.81%; Activity (DU-145 [15]): inactive; Activity (DU-145 [16]): 2.97%; Activity (DU-145 [17]): 3.61%; Activity (DU-145 [18]): 89.28%; Activity (DU-145 [19]): 10.74%; Activity (DU-145 [20]): 3.79%
Cc1cn([C@H]2C[C@H](N=[N+]=[N-])[C@@H](c3nc4ccccc4c4c3[nH]c3ccccc34)O2)c(=O)[nH]c1=O | 10.1 | 4.78 | 17.3 | 6.2 | inactive | 63.3 | Activity (DU-145 [3]): Active; Activity (DU-145 [4]): 19.79%; Activity (DU-145 [5]): 39.57%; Activity (DU-145 [6]): 28.22%; Activity (DU-145 [7]): 80.75%; Activity (DU-145 [8]): 15.78%; Activity (DU-145 [9]): 11.78%; Activity (DU-145 [10]): 77.6%; Activity (DU-145 [21]): Dose-dependent effect; Activity (DU-145 [12]): 9.74%; Activity (DU-145 [13]): 52.07%; Activity (DU-145 [14]): 74.76%; Activity (DU-145 [15]): inactive; Activity (DU-145 [16]): 6.53%; Activity (DU-145 [17]): 4.16%; Activity (DU-145 [18]): 62.12%; Activity (DU-145 [19]): 18.23%; Activity (DU-145 [20]): 5%
CC(C)c1nc2ccccc2c2c1[nH]c1ccccc12 | 43.9 | 20.2 | 18.2 | 18.1 | inactive | > 200 | –
COc1cccc2c1C(=O)c1c(O)c3c(c(O)c1C2=O)C[C@@](O)(C(=O)CO)C[C@@H]3O[C@H]1C[C@H](N)[C@H](O)[C@H](C)O1 [DOXORUBICIN] | 3.11 | 2.31 | 1.43 | 1.11 | – | 5.91 | –
Brc1ccc(-c2nc3ccccc3c3c2[nH]c2ccccc23)cc1 | 18.6 | 23.4 | 49.3 | 17.1 | inactive | > 200 | –
COc1ccc(-c2nc3ccccc3c3c2[nH]c2ccccc23)cc1 | 62 | 27.8 | 36.1 | 23.8 | inactive | 114 | –
c1ccc(Oc2ccc(-c3nc4ccccc4c4c3[nH]c3ccccc34)cc2)cc1 | 54 | 49.6 | 42.8 | 13.2 | inactive | > 200 | –
Fc1cccc(Cl)c1-c1nc2ccccc2c2c1[nH]c1ccccc12 | 14 | 13.3 | 22.9 | 6.35 | inactive | 71.1 | –
